Experimental data taken from patent publication US5374711A, “Chemical modification of 2"-amino group in elsamicin a” (Bristol-Myers Squibb Company, priority 1993, dated 1994).
≈ marks a conversion by molar mass, not a printed value. Where a name gives a salt, the structure may show the parent alone.

Columns and labels:
B16 melanoma = assay: In vivo antitumor activity against B16 melanoma in mice (ip, Q4Dx3); set-up: species or system mice (male BDF1); settings: for times less antitumor activity than elsamicin A in terms of MED: B16, vs elsamicin A
Procedure: (§1) Among the derivatives tested, in vivo antitumor activity of six derivatives showing relatively potent cytotoxicity was tested in the lymphocytic leukemia P388 and B16 melanoma systems. Female CDF1 (for P388) and male BDF1 (for B16) mice were inoculated by ip injection at 10^6 P388 cells and 0.5 ml of a 10% B16 brei per mouse, respectively (day 0). […] The percent increase of median survival time (MST) of treated animals over that of untreated control animals was determined and reported as T/C %. Compounds showing T/C % values of 125 or greater are considered to have significant antitumor activity. […] The others had no activity at the doses tested. Derivatives 4d4e, and 5 when tested in the B16 system, also gave 10- 30 times less antitumor activity than elsamicin A in terms of MED (Table 5).

leukemia P388 = settings: in vitro and in vivo; cited from earlier work
[1] = system: aerobic gram-positive bacteria; settings: cited from earlier work
[2] = system: lymphocytic leukemia P388; assay: In vivo antitumor activity against P388 leukemia in mice (ip, Q1Dx3); set-up: species or system mice (female CDF1); settings: for T/C % of MST / prolongation of life-span in the P388-bearing mice: Q1Dx3, ip; for times less active than the parent compound in terms of minimum effective doses (MED): P388, vs elsamicin A
Procedure: as §1

anaerobic bacteria = settings: cited from earlier work
[3] = system: murine melanoma B16-F10 cells; assay: cells; settings: Mus musculus, B16-F10, 72 h, read-out: Cytotoxicity IC50
Procedure: For in vitro cytotoxicity experiment, murine melanoma B16-F10 cells were grown and maintained in Eagle's minimum essential medium (Nissui), which contains kanamycin (60 μg/ml), supplemented with heat-inactivated fetal calf serum (10%) and nonessential amino acids (0.6%) at 37° C. under a humidified atmosphere in a 5% CO2 incubator, Exponentially growing B16-F10 cells were harvested, counted and suspended in the culture medium at the concentration of 2.0×10^4 cells/ml. The cell suspension (180 μl) was planted into wells of a 96-well microtiter plate and incubated for 24 hours. Test compounds (20 μl) were added to the wells and the plates were further incubated for 72 hours. The cytotoxic activity was colorimetrically determined at 540 nm after staining viable cells with neutral red solution.

melanotic melanoma B16 = settings: in vitro and in vivo; cited from earlier work
lymphoid leukemia L1210 = settings: in vitro and in vivo; cited from earlier work

| SMILES | T/C % of MST (B16 melanoma; 0.3 mg/kg/day, Q4Dx3 ip) | T/C % of MST (B16 melanoma; 1 mg/kg/day, Q4Dx3 ip) | T/C % of MST (B16 melanoma; 3 mg/kg/day, Q4Dx3 ip) | T/C % of MST (B16 melanoma; 10 mg/kg/day, Q4Dx3 ip) | T/C % of MST ([2]; 0.1 mg/kg/day) | T/C % of MST ([2]; 0.3 mg/kg/day) | T/C % of MST ([2]; 1 mg/kg/day) | T/C % of MST ([2]; 3 mg/kg/day) | T/C % of MST ([2]; 10 mg/kg/day) | times less active than the parent compound in terms of minimum effective doses (MED) [2] | prolongation of life-span in the P388-bearing mice [2] | times less antitumor activity than elsamicin A in terms of MED (B16 melanoma) | further results |
| --- | --- | --- | --- | --- | --- | --- | --- | --- | --- | --- | --- | --- | --- |
| CO[C@@H]1[C@@H](N)[C@@H](O[C@H]2[C@H](Oc3cccc4c(O)c5c(=O)oc6ccc(C)c7c(=O)oc(c34)c5c67)O[C@H](C)[C@H](O)[C@]2(C)O)O[C@H](C)[C@@H]1O [Compound 1, Elsamicin A] | 128% | 168% | 208% | ≥ 282% | 120% | 137% | 150% | 170% | 205% | – | – | – | T/C % of MST (B16 melanoma; 0.1 mg/kg/day, Q4Dx3 ip): 115%; No. of survivors/tested on day 50 (B16 melanoma; 10 mg/kg/day, Q4Dx3 ip, day 50): 4/8; activity against murine tumor cells (leukemia P388): exerts activity; antibacterial activity [1]: exhibits antibacterial activity; T/C % of MST ([2]; 20 mg/kg/day): Tox; antibacterial activity (anaerobic bacteria): exhibits antibacterial activity; IC50 [3]: 0.07 µg/mL (≈ 0.107 µM); activity against murine tumor cells (melanotic melanoma B16): exerts activity; activity against murine tumor cells (lymphoid leukemia L1210): exerts activity |
| CO[C@H]1[C@@H](O)[C@@H](C)O[C@H](O[C@H]2[C@H](Oc3cccc4c(O)c5c(=O)oc6ccc(C)c7c(=O)oc(c34)c5c67)O[C@H](C)[C@H](O)[C@]2(C)O)[C@@H]1NC(=O)CN [Compound 3d, 2"-N-Glycylelsamicin A] | – | – | – | – | – | – | 95% | 110% | 110% | – | – | – | – |
| CO[C@H]1[C@@H](O)[C@@H](C)O[C@H](O[C@H]2[C@H](Oc3cccc4c(O)c5c(=O)oc6ccc(C)c7c(=O)oc(c34)c5c67)O[C@H](C)[C@H](O)[C@]2(C)O)[C@@H]1NC(C)C [Compound 4a, 2"-N-Isopropylelsamicin A] | – | – | – | – | – | – | 110% | 120% | 140% | 10-30 times | quite limited prolongation of life-span | – | – |
| CN[C@H]1[C@@H](O[C@H]2[C@H](Oc3cccc4c(O)c5c(=O)oc6ccc(C)c7c(=O)oc(c34)c5c67)O[C@H](C)[C@H](O)[C@]2(C)O)O[C@H](C)[C@H](O)[C@@H]1OC [Compound 4d, 2"-N-Methylelsamicin A] | 106% | 100% | 115% | 135% | 100% | 100% | 120% | 130% | 145% | 10-30 times | quite limited prolongation of life-span | 10- 30 times | – |
| CO[C@H]1[C@@H](O)[C@@H](C)O[C@H](O[C@H]2[C@H](Oc3cccc4c(O)c5c(=O)oc6ccc(C)c7c(=O)oc(c34)c5c67)O[C@H](C)[C@H](O)[C@]2(C)O)[C@@H]1N(C)C [Compound 4e, 2"-N,N-Dimethylelsamicin A] | – | 103% | 109% | 132% | – | – | 110% | 130% | 140% | 10-30 times | quite limited prolongation of life-span | 10- 30 times | – |
| CO[C@H]1[C@@H](O)[C@@H](C)O[C@H](O[C@H]2[C@H](Oc3cccc4c(O)c5c(=O)oc6ccc(C)c7c(=O)oc(c34)c5c67)O[C@H](C)[C@H](O)[C@]2(C)O)[C@@H]1N1CCOCC1 [Compound 4f, 2"-Deamino-2"-morpholinoelsamicin A] | – | – | – | – | – | – | 100% | 105% | 100% | – | – | – | – |
| CO[C@H]1[C@@H](O)[C@@H](C)O[C@H](O[C@H]2[C@H](Oc3cccc4c(O)c5c(=O)oc6ccc(C)c7c(=O)oc(c34)c5c67)O[C@H](C)[C@H](O)[C@]2(C)O)[C@@H]1NC=N [Compound 5, 2"-N-Formimidoylelsamicin A hydrochloride] | 100% | 103% | 126% | 150% | 100% | 100% | 120% | 130% | 140% | 10-30 times | quite limited prolongation of life-span | 10- 30 times | – |
